Test [1] has as its target SARS-CoV-2 NSP3 macrodomain (Mac1), P43 crystal form (Severe acute respiratory syndrome coronavirus 2, UniProt P0DTD1). The test is classed as binding. The settings on record: for PanDDA run, TFA/DMSO background map: 1-BDC / PanDDA run, TFA/DMSO background map: Hit: crystal soak 10 mM.
The target of test [2] is SARS-CoV-2 NSP3 macrodomain (Mac1) (Severe acute respiratory syndrome coronavirus 2, UniProt P0DTD1). Kind of test: biochemical. The test is classed as binding. The settings on record: for Ligand efficiency (binding enery per heavy atom): from SARS CoV-2 macrodomain HTRF assay.
Where [3] appears, read: ligand modeling in Mac1 crystal soak.
[4] abbreviates: Single dose, concentration 200 μM, read-out: Average % competition.
The mark [5] stands for this setting: preliminary screen, compound at 200 μM, mean of 3-4 technical replicates, read-out: % competition in HTRF assay.
[6] abbreviates: stereoisomer(s) of ligand modeled in Mac1 crystal structure.
Setting [7] is: ligand modeling in Mac1 crystal structure.
Where [8] appears, read: stereoisomer(s) modeled in Mac1 crystal structure.
[9] abbreviates: dose-response, read-out: SARS CoV-2 macrodomain HTRF assay: IC50.
[10] abbreviates: dose-response, read-out: SARS CoV-2 macrodomain HTRF assay: Ki.

The structures appear in SMILES notation. Like-named read-outs stand apart in the source and are kept apart here.

Consider `OCC(Nc1ncnc2[nH]ccc12)C1CCOC1` (stereo not drawn) [AVI-3679], for which, in test [1], the “PanDDA run, TFA/DMSO background map: 1-BDC” value was 0.11 and the “PanDDA run, TFA/DMSO background map: Hit” value is “TRUE”. Besides, the “Number of isomers bound” value in test [1] (setting [3]) was determined as 1. For the same compound, the inhibition at 200 µM in test [2] (setting [4]) turned out to be 35%. The inhibition at 200 µM in test [2] (setting [5]) came out at 35%.

On to `Nc1ncnc2c1ncn2[C@@H]1O[C@H](COP(=O)(O)OP(=O)(O)OC[C@H]2O[C@@H](O)[C@H](O)[C@@H]2O)[C@@H](O)[C@H]1O.[Na].[Na]` [ADP-ribose, reference compound], for which the X-ray crystal structure result in test [1] (crystal structure with Mac1 determined (TRUE)) was “TRUE”. In test [2] (HTRF dose-response fit, Mac1), this compound had a Hill slope of 1.1.

As to `OCC1COCCN1c1ncnc2[nH]ccc12` (stereo not drawn) [AVI-3717], the “Number of isomers bound” value in test [1] (setting [3]) is recorded as 2. The Isomers modeled result in test [1] (setting [6]) is given as “R,S”. The inhibition at 200 µM amounted to 62% in test [2] (Single dose, concentration 200 μM, read-out: SARS CoV-2 macrodomain HTRF assay: Average % competition) and 62% in test [2] (setting [5]).

In the case of `CC(C)(CO)Nc1ncnc2[nH]ccc12` [AVI-5266], the “Number of isomers bound” value in test [1] (setting [7]) was 1. Also, the Isomers modeled result in test [1] (setting [8]) was “achiral”. Moreover, the IC50 in test [2] (SARS CoV-2 macrodomain HTRF assay, dose-response, read-out: IC50) was 32 µM; in test [2] (read-out: HTRF IC50), 110 µM. The Ki in test [2] (SARS CoV-2 macrodomain HTRF assay, dose-response, read-out: Ki) came out at 30 µM.

Regarding `OCC(Nc1ncnc2[nH]ccc12)C1CCc2ccccc21` (stereo not drawn) [AVI-3693], the “Number of isomers bound” value in test [1] (setting [3]) is 2. Moreover, the Isomers modeled result in test [1] (setting [6]) is reported as “RR,SR”. Besides, the inhibition at 200 µM in test [2] (setting [4]) and in test [2] (setting [5]) was 78% throughout.

As to `CC(C)(O)C1N(c2ncnc3[nH]ccc23)CCC1(C)C` (stereo not drawn) [AVI-4126], the “Number of isomers bound” value in test [1] (setting [7]) was 2. Also, the Isomers modeled result in test [1] (setting [8]) is “R,S”. The IC50 in test [2] (setting [9]) turned out to be 100 µM. Moreover, the Ki in test [2] (setting [10]) is 93 µM. Besides, the “Ligand efficiency (binding enery per heavy atom)” value in test [2] was determined as 0.28.

`CC(C)(O)[C@H]1CCCN1c1ncnc2[nH]ccc12` [AVI-607, 2-[(2R)-1-{7H-Pyrrolo[2,3-d]pyrimidin-4-yl}pyrrolidin-2-yl]propan-2-ol]: in test [1] (setting [3]), the “Number of isomers bound” value is listed as 1. The same compound registered a Ligand efficiency in test [2] (binding energy per heavy atom) of 0.41. Also, in test [2] (setting [10]), the Ki was found to be 4.7 µM. Further, in test [2], the “Ligand efficiency (binding enery per heavy atom)” value was determined as 0.41. The IC50 in test [2] (read-out: HTRF IC50) stood at 5.1 µM.

As to `C#CCC(CO)Nc1ncnc2[nH]ccc12` (stereo not drawn) [AVI-3644], in test [1], the “PanDDA run, TFA/DMSO background map: 1-BDC” value is recorded as 0.11 and the “PanDDA run, TFA/DMSO background map: Hit” value is “TRUE”. Moreover, the “Number of isomers bound” value in test [1] (setting [3]) was 1. Further, the inhibition at 200 µM in test [2] (setting [4]) is 43%. Also, in test [2] (setting [5]), the inhibition at 200 µM is 43%.

For the compound `OC1(CNc2ncnc3[nH]ccc23)CC2CCC1CC2` (stereo not drawn) [AVI-4320], in test [1] (setting [7]), the “Number of isomers bound” value was 1. Also, the IC50 in test [2] (setting [9]) came to 83 µM. Further, in test [2] (setting [10]), the Ki amounted to 77 µM. In addition, in test [2], the “Ligand efficiency (binding enery per heavy atom)” value was 0.28.

Turning to `CC(C)(C)CC(CO)Nc1ncnc2[nH]ccc12` (stereo not drawn) [AVI-3648], in test [1], the “PanDDA run, TFA/DMSO background map: 1-BDC” value was 0.16 and the “PanDDA run, TFA/DMSO background map: Hit” value is listed as “TRUE”. For the same compound, the “Number of isomers bound” value in test [1] (setting [3]) is listed as 1. Further, the inhibition at 200 µM in test [2] (setting [4]) turned out to be 27%. In test [2] (setting [5]), the inhibition at 200 µM was determined as 27%.

As to `Cc1c(C)n(Cc2ccccc2)c2ncnc(N)c12` [AVI-321], in test [1] (setting [3]), the “Number of isomers bound” value stood at 1. The Isomers modeled entry in test [1] (setting [6]) was “achiral”. Also, the inhibition at 200 µM in test [2] (Single dose, 200 μM, mean of three technical replicates, read-out: Average % competition) turned out to be 19%; in test [2] (setting [5]) it was 19%.

`CC(O)C1CCCN1c1ncnc2[nH]ccc12` (stereo not drawn) [AVI-4062]: the “Number of isomers bound” value in test [1] (setting [7]) came to 1. The “fold decrease in affinity compared to AVI-607” value in test [2] (HTRF) is given as ~ 3 fold. For the same compound, the Ki in test [2] (setting [10]) turned out to be 51 µM. Besides, the “Ligand efficiency (binding enery per heavy atom)” value in test [2] is given as 0.35. The IC50 in test [2] (read-out: HTRF IC50) turned out to be 55 µM.

As to `OC[C@@H]1C[C@@H]2CCC[C@@H]2N1c1ncnc2[nH]ccc12` [AVI-3720], in test [1] (setting [3]), the “Number of isomers bound” value is given as 1. For the same compound, the Isomers modeled result in test [1] (setting [6]) is recorded as “SSS”. The half-inhibitory concentration (IC50) in test [2] (setting [9]) turned out to be 28 µM. The Ki in test [2] (setting [10]) amounted to 26 µM. Moreover, the “Ligand efficiency (binding enery per heavy atom)” value in test [2] was 0.33.

As to `OC1(CNc2ncnc3[nH]ccc23)CCC(F)(F)CC1` [AVI-4308], the “Number of isomers bound” value in test [1] (setting [7]) worked out at 1. Also, the Isomers modeled result in test [1] (setting [8]) was “achiral”. For the same compound, the IC50 in test [2] (setting [9]) came to 140 µM. Besides, the Ki in test [2] (setting [10]) was determined as 130 µM. For the same compound, in test [2], the “Ligand efficiency (binding enery per heavy atom)” value stood at 0.27.

The record behind these values is paper doi:10.1101/2024.08.25.609621 (bioRxiv, 2024).
